Source: patent US7446199B2, “Compositions useful as inhibitors of protein kinases” (Vertex Pharmaceuticals Incorporated, priority 2003, dated 2008)

Tests used:
[1] = biological target: T1, JAK3 (Homo sapiens, UniProt P52333); assay: JAK3 inhibition assay (ELISA, Poly (Glu, Ala, Tyr) coated plates); assay type: biochemical; details: 2 mM ATP, 60 minutes at 30° C.
T1 sequence (P52333 1-1124): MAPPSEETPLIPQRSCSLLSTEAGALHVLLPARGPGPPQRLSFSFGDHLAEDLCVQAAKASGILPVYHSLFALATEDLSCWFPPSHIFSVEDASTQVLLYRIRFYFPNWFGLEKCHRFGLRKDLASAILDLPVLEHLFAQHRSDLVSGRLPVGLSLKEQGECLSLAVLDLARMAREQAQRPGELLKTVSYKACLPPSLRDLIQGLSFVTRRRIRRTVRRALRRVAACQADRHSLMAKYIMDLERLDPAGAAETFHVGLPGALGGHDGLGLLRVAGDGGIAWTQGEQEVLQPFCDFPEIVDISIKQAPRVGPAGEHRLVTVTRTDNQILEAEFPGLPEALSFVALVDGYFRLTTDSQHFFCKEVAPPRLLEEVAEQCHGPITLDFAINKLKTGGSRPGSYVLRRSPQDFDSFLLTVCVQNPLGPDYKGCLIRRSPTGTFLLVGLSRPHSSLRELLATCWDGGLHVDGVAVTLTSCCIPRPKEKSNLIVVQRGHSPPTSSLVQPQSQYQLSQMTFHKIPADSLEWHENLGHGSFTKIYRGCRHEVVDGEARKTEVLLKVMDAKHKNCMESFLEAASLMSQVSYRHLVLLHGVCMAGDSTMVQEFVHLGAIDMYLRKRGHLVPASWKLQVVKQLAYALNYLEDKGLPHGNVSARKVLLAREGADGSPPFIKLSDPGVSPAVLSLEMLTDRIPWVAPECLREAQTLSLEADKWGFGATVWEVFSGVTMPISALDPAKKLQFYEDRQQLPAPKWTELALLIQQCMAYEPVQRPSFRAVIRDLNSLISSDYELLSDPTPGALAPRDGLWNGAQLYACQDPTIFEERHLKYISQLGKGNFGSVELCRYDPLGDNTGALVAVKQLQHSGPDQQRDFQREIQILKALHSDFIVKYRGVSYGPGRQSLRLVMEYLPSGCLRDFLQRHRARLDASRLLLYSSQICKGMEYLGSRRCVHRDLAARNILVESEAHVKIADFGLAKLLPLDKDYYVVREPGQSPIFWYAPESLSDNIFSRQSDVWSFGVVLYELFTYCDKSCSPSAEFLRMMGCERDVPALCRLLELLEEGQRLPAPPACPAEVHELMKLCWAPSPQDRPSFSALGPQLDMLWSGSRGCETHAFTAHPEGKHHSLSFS
Outline: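 ELISA on Poly(Glu,Ala,Tyr) 6:3:1-coated plates with 2 mM ATP and 5 mM MgCl2. JAK enzyme started the reaction, run 60 min at 30° C. Phosphotyrosine was detected with HRP-conjugated 4G10 antibody and TMB, read at 450 nm, and IC50 was derived from optical densities.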

[2] = biological target: T2, c-KIT (Homo sapiens, UniProt P10721); assay: Inhibition of c-KIT, radiometric filter-binding assay; assay type: biochemical; details: 700 μM ATP, 0.5 mg/mL pE4Y, room temperature
T2 construct: 0.02% BSA and 25 nM c-KIT
T2 sequence (P10721 26-976): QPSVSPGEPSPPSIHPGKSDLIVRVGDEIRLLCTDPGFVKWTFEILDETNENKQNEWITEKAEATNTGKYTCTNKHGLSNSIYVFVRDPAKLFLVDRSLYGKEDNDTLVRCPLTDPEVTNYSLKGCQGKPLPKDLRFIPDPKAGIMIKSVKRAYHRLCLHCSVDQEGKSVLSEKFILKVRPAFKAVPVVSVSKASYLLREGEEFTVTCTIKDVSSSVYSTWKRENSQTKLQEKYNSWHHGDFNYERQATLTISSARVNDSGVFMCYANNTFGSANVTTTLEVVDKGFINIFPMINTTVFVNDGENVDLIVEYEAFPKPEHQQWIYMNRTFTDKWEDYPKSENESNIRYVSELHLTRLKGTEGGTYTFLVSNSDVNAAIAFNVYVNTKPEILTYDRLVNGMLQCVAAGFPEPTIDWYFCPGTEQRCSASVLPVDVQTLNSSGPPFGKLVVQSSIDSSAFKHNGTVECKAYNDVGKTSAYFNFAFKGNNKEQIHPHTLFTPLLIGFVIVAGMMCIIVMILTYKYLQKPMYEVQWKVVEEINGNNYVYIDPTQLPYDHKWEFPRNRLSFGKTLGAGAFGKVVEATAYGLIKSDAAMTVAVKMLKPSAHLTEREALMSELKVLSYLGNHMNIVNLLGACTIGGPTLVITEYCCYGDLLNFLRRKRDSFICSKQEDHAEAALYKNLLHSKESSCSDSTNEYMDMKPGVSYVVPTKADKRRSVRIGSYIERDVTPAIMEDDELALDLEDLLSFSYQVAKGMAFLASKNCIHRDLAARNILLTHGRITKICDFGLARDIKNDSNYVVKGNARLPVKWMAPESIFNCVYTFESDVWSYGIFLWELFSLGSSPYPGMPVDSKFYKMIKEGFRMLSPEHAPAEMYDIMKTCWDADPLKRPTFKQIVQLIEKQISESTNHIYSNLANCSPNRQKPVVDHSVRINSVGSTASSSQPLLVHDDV
Outline: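 Radiometric filter-binding: 25 nM c-KIT (enzyme in the Solution 2 mix) with poly(Glu,Tyr) 4:1 substrate at 0.5 mg/mL and [γ-^33P]ATP at 700 μM (both final), in HEPES pH 7.5/MgCl2/NaCl/DTT/BSA with 2.5% DMSO. Incubated 20 min at room temperature, stopped with TCA, and ^33P incorporation counted on filters. 12-point titration, final compound typically 0.01-5 μM; IC50 or Ki from curve fit.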

Question: What does the source list for `NC1CC=C(c2cnc3[nH]cc(-c4oncc4-c4cccc(F)c4F)c3c2)CC1` (stereo not shown) [Compound 137, 4-{3-[4-(2,3-Difluoro-phenyl)-isoxazol-5-yl]-1H-pyrrolo [2,3-b]pyridin-5-yl}-cyclohex-3-enylamine]?
Answer: Ki [1]: < 200 nM; Ki [2]: < 200 nM

Question: For `Fc1cccc(-c2cnoc2-c2c[nH]c3ncc(-c4cnc5[nH]ccc5c4)cc23)c1F` [Compound 77, 3-[4-(2,3-Difluoro-phenyl)-isoxazol-5-yl]-1H,1′H-[5,5′]bi[pyrrolo[2,3-b]pyridinyl]], which Ki [1] is on record?
Answer: < 200 nM

Question: And the Ki [2]?
Answer: < 200 nM

Question: `CN1CCN(Cc2ccc(-c3cnc4[nH]cc(-c5oncc5-c5cccc(F)c5F)c4c3)cc2)CC1` [Compound 94, 3-[4-(2,3-Difluoro-phenyl)-isoxazol-5-yl]-5-[4-(4-methyl-piperazin-1-ylmethyl)-phenyl]-1H-pyrrolo[2,3-b]pyridine] was tested. Which Ki [1] did it give?
Answer: < 200 nM

Question: And the Ki [2]?
Answer: < 200 nM

Question: Which Ki [1] does the source give for `Fc1cccc(-n2cnnc2-c2c[nH]c3ncc(-c4ccc(CN5CCOCC5)cc4)cc23)c1F` [Compound 109, 3-[4-(2,3-Difluoro-phenyl)-4H-[1,2,4]triazol-3-yl]-5-(4-morpholin-4-ylmethyl-phenyl)-1H-pyrrolo[2,3-b]pyridine] here?
Answer: 200 to 1000 nM

Question: What about the Ki [2] of the same compound?
Answer: < 200 nM

Question: With `CN(C)c1cccc(-c2cnc3[nH]cc(-c4oncc4-c4cccc(F)c4F)c3c2)c1` [Compound 61, (3-{3-[4-(2,3-Difluoro-phenyl)-isoxazol-5-yl]-1H-pyrrolo[2,3-b]pyridin-5-yl}-phenyl)-dimethyl-amine] as the compound, how does the Ki [1] read?
Answer: 200 to 1000 nM

Question: And the Ki [2]?
Answer: < 200 nM

Question: `COc1cncc(-c2cnc3[nH]cc(-c4oncc4-c4cccc(F)c4F)c3c2)c1` [Compound 96, 3-[4-(2,3-Difluoro-phenyl)-isoxazol-5-yl]-5-(5-methoxy-pyridin-3-yl)-1H-pyrrolo[2,3-b]pyridine] was tested. Which Ki [1] did it give?
Answer: < 200 nM

Question: What about the Ki [2] of the same compound?
Answer: < 200 nM

Question: How did the Ki [1] turn out when `COc1ccnc(-c2cnc3[nH]cc(-c4oncc4-c4cccc(F)c4F)c3c2)c1` [Compound 78, 3-[4-(2,3-Difluoro-phenyl)-isoxazol-5-yl]-5-(4-methoxy-pyridin-2-yl)-1H-pyrrolo[2,3-b]pyridine] was run?
Answer: 200 to 1000 nM

Question: And the Ki [2]?
Answer: < 200 nM

Question: How did the Ki [1] turn out when `Fc1cccc(-c2cnoc2-c2c[nH]c3ncccc23)c1F` [Compound 1, 3-[4-(2,3-Difluoro-phenyl)-isoxazol-5-yl]-1H-pyrrolo[2,3-b]pyridine] was run?
Answer: 200 to 1000 nM

Question: What about the Ki [2] of the same compound?
Answer: < 200 nM

Question: With `CCN1CCC(c2cnc3[nH]cc(-c4oncc4-c4cccc(F)c4F)c3c2)CC1` [Compound 72, 3-[4-(2,3-Difluoro-phenyl)-isoxazol-5-yl]-5-(1-ethyl-piperidin-4-yl)-1H-pyrrolo[2,3-b]pyridine] as the compound, how does the Ki [1] read?
Answer: 1000 to 12500 nM

Question: And the Ki [2]?
Answer: < 200 nM

Question: What does the source list for `Oc1cnc2[nH]cc(-c3oncc3-c3cccc(Cl)c3Cl)c2c1` [Compound 48, 3-[4-(2,3-Dichloro-phenyl)-isoxazol-5-yl]-1H-pyrrolo[2,3-b]pyridin-5-ol]?
Answer: Ki [1]: < 200 nM; Ki [2]: 200 to 1000 nM

Question: `Oc1cnc2[nH]cc(-c3oncc3-c3cccc(F)c3F)c2c1` [Compound 43, 3-[4-(2,3-Difluoro-phenyl)-isoxazol-5-yl]-1H-pyrrolo[2,3-b]pyridin-5-ol] was tested. Which Ki [1] did it give?
Answer: < 200 nM

Question: And the Ki [2]?
Answer: < 200 nM

Question: `CN1CCCN(c2ccc(-c3cnc4[nH]cc(-c5nncn5-c5cccc(F)c5F)c4c3)cn2)CC1` [Compound 117, 3-[4-(2,3-Difluoro-phenyl)-4H-[1,2,4]triazol-3-yl]-5-[6-(4-methyl-[1,4]diazepan-1-yl)-pyridin-3-yl]-1H-pyrrolo [2,3-b]-pyridine] was tested. Which Ki [1] did it give?
Answer: 1000 to 12500 nM

Question: What about the Ki [2] of the same compound?
Answer: 200 to 1000 nM

Question: Which results are given for `CN1CCC(c2cnc3[nH]cc(-c4oncc4-c4cccc(F)c4F)c3c2)CC1` [Compound 60, 3-[4-(2,3-Difluoro-phenyl)-isoxazol-5-yl]-5-(1-methyl-piperidin-4-yl)-1H-pyrrolo[2,3-b]pyridine]?
Answer: Ki [1]: 1000 to 12500 nM; Ki [2]: 200 to 1000 nM

Question: What does the source list for `CN1CCN(c2ccc(-c3cnc4[nH]cc(-c5nncn5-c5cccc(F)c5F)c4c3)cc2)CC1` [Compound 110, 3-[4-(2,3-Difluoro-phenyl)-4H-[1,2,4]triazol-3-yl]-5-[4-(4-methyl-piperazin-1-yl)-phenyl]-1H-pyrrolo[2,3-b]pyridine]?
Answer: Ki [1]: 200 to 1000 nM; Ki [2]: < 200 nM

Question: `Nc1cccc(-c2cnc3[nH]cc(-c4oncc4-c4cccc(F)c4F)c3c2)c1` [Compound 86, 3-{3-[4-(2,3-Difluoro-phenyl)-isoxazol-5-yl]-1H-pyrrolo [2,3-b]pyridin-5-yl}-phenylamine] was tested. Which Ki [1] did it give?
Answer: < 200 nM

Question: And the Ki [2]?
Answer: < 200 nM

Question: How did the Ki [1] turn out when `OC1CCN(c2ccc(-c3cnc4[nH]cc(-c5nncn5-c5cccc(F)c5F)c4c3)cn2)CC1` [Compound 116, 5′-{3-[4-(2,3-Difluoro-phenyl)-4H-[1,2,4]triazol-3-yl]-1H-pyrrolo[2,3-b]pyridin-5-yl}-3,4,5,6-tetrahydro-2H-[1,2′]bi-pyridinyl-4-ol] was run?
Answer: 200 to 1000 nM

Question: What about the Ki [2] of the same compound?
Answer: 200 to 1000 nM

Question: Which Ki [1] does the source give for `Fc1ccc(-c2cnoc2-c2c[nH]c3ncccc23)c(F)c1F` [Compound 40, 3-[4-(2,3,4-Trifluoro-phenyl)-isoxazol-5-yl]-1H-pyrrolo [2,3-b]pyridine] here?
Answer: 1000 to 12500 nM

Question: What about the Ki [2] of the same compound?
Answer: 200 to 1000 nM

Question: With `CS(=O)(=O)NC1CC=C(c2cnc3[nH]cc(-c4oncc4-c4cccc(F)c4F)c3c2)CC1` (stereo not shown) [Compound 140, N-(4-{3-[4-(2,3-Difluoro-phenyl)-isoxazol-5-yl]-1H-pyrrolo[2,3-b]pyridin-5-yl}-cyclohex-3-enyl)-methanesulfonamide] as the compound, how does the Ki [1] read?
Answer: < 200 nM

Question: What about the Ki [2] of the same compound?
Answer: < 200 nM

Question: For `CN(C)Cc1ccnc(-c2cnc3[nH]cc(-c4oncc4-c4cccc(F)c4F)c3c2)c1` [Compound 82, (2-{3-[4-(2,3-Difluoro-phenyl)-isoxazol-5-yl]-1H-pyrrolo[2,3-b]pyridin-5-yl}-pyridin-4-ylmethyl)-dimethyl-amine], which Ki [1] is on record?
Answer: < 200 nM

Question: And the Ki [2]?
Answer: < 200 nM

Question: For `Fc1cccc(-c2cnoc2-c2c[nH]c3ncc(-c4c[nH]cn4)cc23)c1F` [Compound 76, 3-[4-(2,3-Difluoro-phenyl)-isoxazol-5-yl]-5-(3H-imidazol-4-yl)-1H-pyrrolo[2,3-b]pyridine], which Ki [1] is on record?
Answer: < 200 nM

Question: What about the Ki [2] of the same compound?
Answer: < 200 nM

Question: `Cc1noc(-c2c[nH]c3ncc(-c4ccc(N5CCN(C)CC5)cc4)cc23)c1-c1cccc(F)c1F` [Compound 135, 3-[4-(2,3-Difluoro-phenyl)-3-methyl-isoxazol-5-yl]-5-[4-(4-methyl-piperazin-1-yl)-phenyl]-1H-pyrrolo[2,3-b]pyridine] was tested. Which Ki [1] did it give?
Answer: < 200 nM

Question: What about the Ki [2] of the same compound?
Answer: < 200 nM

Question: For `Clc1cccc(-c2cnoc2-c2c[nH]c3ncc(-c4cccnc4)cc23)c1Cl` [Compound 99, 3-[4-(2,3-Dichloro-phenyl)-isoxazol-5-yl]-5-pyridin-3-yl-1H-pyrrolo[2,3-b]pyridine], which Ki [1] is on record?
Answer: < 200 nM

Question: And the Ki [2]?
Answer: < 200 nM

Question: How did the Ki [1] turn out when `Fc1cccc(-c2cnoc2-c2c[nH]c3ncc(C4CCNCC4)cc23)c1F` [Compound 62, 3-[4-(2,3-Difluoro-phenyl)-isoxazol-5-yl]-5-piperidin-4-yl-1H-pyrrolo[2,3-b]pyridine] was run?
Answer: 1000 to 12500 nM

Question: And the Ki [2]?
Answer: 200 to 1000 nM

Question: How did the Ki [1] turn out when `CN(C)c1ccc(-c2cnc3[nH]cc(-c4oncc4-c4cccc(F)c4F)c3c2)cc1` [Compound 88, (4-{3-[4-(2,3-Difluoro-phenyl)-isoxazol-5-yl]-1H-pyrrolo[2,3-b]pyridin-5-yl}-phenyl)-dimethyl-amine] was run?
Answer: < 200 nM

Question: What about the Ki [2] of the same compound?
Answer: < 200 nM

Question: `CN(C)CC#Cc1cnc2[nH]cc(-c3oncc3-c3cccc(F)c3F)c2c1` [Compound 53, (3-{3-[4-(2,3-Difluoro-phenyl)-isoxazol-5-yl]-1H-pyrrolo[2,3-b]pyridin-5-yl}-prop-2-ynyl)-dimethyl-amine] was tested. Which Ki [1] did it give?
Answer: 200 to 1000 nM

Question: What about the Ki [2] of the same compound?
Answer: < 200 nM

Question: For `Fc1cccc(-c2cnoc2-c2c[nH]c3ncc(-c4ccc(CN5CCOCC5)cc4)cc23)c1F` [Compound 92, 3-[4-(2,3-Difluoro-phenyl)-isoxazol-5-yl]-5-(4-morpholin-4-ylmethyl-phenyl)-1H-pyrrolo[2,3-b]pyridine], which Ki [1] is on record?
Answer: < 200 nM

Question: And the Ki [2]?
Answer: < 200 nM
